From patent US20080026417A1, “ASSAYS FOR TRICHOMONAL AND OTHER HYDROLASES” (priority 2002, published 2008)
Ends that are not written are not given here. Peptide text beside a SMILES is read from it. * marks the point of attachment. AMC = Cc1cc(=O)oc2cc(N*)ccc12; Cbz = O=C(OCc1ccccc1)*; Boc = CC(C)(C)OC(=O)*

Assays:
[1] = system: trichomonal hydrolases; test: Experiment 2: hydrolysis of substrates by trichomonal hydrolases with or without NVS, absorbance 540 nm; type: biochemical, Trichomonas vaginalis; conditions: absorbance at 540 nm per method; for Color Scores: Trichomonal hydrolases + NVS: 10% NVS
Method: Substrate solutions containing 8 mM of one of the four substrates (ZRR-MNA, BLRR-AMC, BLKR-AMC, ZKKR-AMC) in one of the two buffers (acetate, TRIS) were prepared by mixing 4 μL 100 mM substrate with 6 μL 6.3 mM L-cysteine, 14 μL 200 mM buffer and 26 μL water. Assays of trichomonal hydrolase activity, with or without the addition of NVS, were performed in 200 μL microwells. In one set of microwells, 10 μL of each substrate/buffer combination was mixed with 10 μL of undiluted trichomonal hydrolases. In a second set of microwells, 10 μL of each substrate/buffer combination was mixed with 10 μL of a mixture of 90% v/v trichomonal hydrolases and 10% NVS. Fifteen minutes later, 50 μL of indicator solution was added to each well. After another fifteen minutes, the absorbance of each solution in the wells was measured on a microtiter plate reader set on 540 nm wavelength.

[2] = system: hydrolases present in whole normal vaginal fluid; test: Experiment 2: hydrolysis of substrates by whole normal vaginal fluid, visual color score; type: biochemical, human; set-up: key: 0: Yellow; 1: Peach; 2: Orange; 3: Light to medium pink; 4: Dark pink or red; 5: Fuchsia; 6: Purple; conditions: visual 0-6 scale
Method: Due to the partial opacity of cells and other particulate matter in whole vaginal fluid, assays of hydrolase activity present in whole vaginal fluid were performed in 20 μL conical microwells and scored visually. The vaginal fluid from a single normal, uninfected donor was agitated to resuspend the particulate matter, and 2 μL aliquots of the vaginal fluid were mixed with 2 μL of each substrate/buffer combination. To retard evaporation from the wells, water was pipetted into the mini-tray adjacent to the wells prior to replacing the tray cover. Fifteen minutes later, 2 μL of indicator solution was added to each well. After another fifteen minutes, the color in each well was visually scored in 0.5-unit increments using the 0-6 scale presented in Table 2.1.

[3] = system: trichomonal hydrolases; test: Experiment 8: polypeptide inhibition of trichomonal hydrolases; type: biochemical, Trichomonas vaginalis; set-up: key: 0: Yellow; 1: Peach; 2: Orange; 3: Light to medium pink; 4: Dark pink or red; 5: Fuchsia; 6: Purple; conditions: 10 mM polypeptide in substrate solution
Method: (§1) The vaginal fluid was extracted from each swab by centrifugation, and then mixed to resuspend the particulate matter. For each donor, 2 μL of vaginal fluid was pipetted into each of ten microwells, then 2 μL of one of the ten substrate/buffer/polypeptide combinations was added to each well. Additionally, 2 μL of trichomonal hydrolases was mixed with 2 μL of each of the substrate/polypeptide combinations in set of ten wells. After fifteen minutes, 2 μL of indicator solution was added to each well.

[4] = system: non-trichomonal hydrolases present in vaginal fluid; test: Experiment 8: polypeptide inhibition of hydrolases in whole vaginal fluid of uninfected women; type: biochemical, human; set-up: key: 0: Yellow; 1: Peach; 2: Orange; 3: Light to medium pink; 4: Dark pink or red; 5: Fuchsia; 6: Purple; conditions: ZRR-MNA, 10 mM polypeptide in substrate solution
Method: as §1

[5] = system: trichomonal hydrolases; test: Experiment 13: hydrolysis of peptide substrates by trichomonal hydrolases at low pH, no vaginal fluid; type: biochemical, Trichomonas vaginalis; set-up: key: −: No red color produced; +: Clearly visible red color produced; ++: Moderately intense red color produced; +++: Very intense red color produced; conditions: without vaginal fluid; threonine buffer pH 2.4; 2 mM substrate solution; 10 min 25° C.; Fast Garnet
Method: (§2) Forty μL of each substrate was pipetted into duplicate wells of a microtiter plate. The plate was covered with tape, placed into a 25° C. incubator, and allowed to warm. A diluted enzyme mixture was prepared by mixing one part (v/v) freshly-thawed trichomonal hydrolase solution to nine parts 2 mM L-cysteine solution. Forty μL of this mixture was added to one well of each pair of duplicate wells. For negative controls, 40 μL of 2 mM L-cysteine was added to the second well in each pair of duplicate wells. The plate was returned to the incubator and incubated for ten minutes. Forty μL of SDS/acetate solution was added to each well, followed by 40 μL of Fast Garnet solution. The intensity of color that developed in each well after five minutes was visually scored using the color scale presented in Table 13.1.

[6] = system: trichomonal hydrolases; test: Experiment 13: hydrolysis of peptide substrates by trichomonal hydrolases at low pH in vaginal fluid supernatant; type: biochemical, Trichomonas vaginalis; set-up: key: −: No red color produced; +: Clearly visible red color produced; ++: Moderately intense red color produced; +++: Very intense red color produced; conditions: Fast Garnet
Method: as §2
Of the nine substrates hydrolyzed by trichomonal hydrolases to produce an intense pink color (scoring ++ or +++) in the absence of vaginal fluid supernatant, only four produced intense pink color when vaginal fluid supernatant was present.

[7] = system: trichomonal hydrolases; test: Experiment 1: hydrolysis of substrates by trichomonal hydrolases at pH 2.8-9.2, with or without normal vaginal fluid supernatant (NVS), absorbance 540 nm; type: biochemical, Trichomonas vaginalis; conditions: 540 nm
Method: Assays without normal vaginal fluid supernatant present: Two sets of six wells in a microtiter plate were prepared, with each well containing 80 μL of one of the six 200 mM buffers, 10 μL of water and 10 μL of diluted trichomonal hydrolases. Ten μL of ZRR-MNA was added to each well in the first set of wells, and 10 μl of VLK-MNA was added to each well in the second set of wells. After fifteen minutes, 100 μl of indicator solution was added to each well. Because a high pH can reduce the intensity of color produced by the indicator solution, 50 μl of 100 mM acetic acid buffer, pH 3.7, was added to each well except the pH 2.8 wells (water was substituted for the acetic acid in those wells). After another fifteen minutes, the absorbance of the solutions in the wells was measured on a microtiter plate reader set on 540 nm wavelength.
Assays with normal vaginal fluid supernatant (NVS) present: The procedure of the preceding paragraph was followed, except that 10 μL of diluted NVS was added to the wells in place of the 10 μL of water.

[8] = pH 5, Donor A whole vaginal fluid
[9] = pH 5, Donor B whole vaginal fluid
[10] = pH 5, Donor C whole vaginal fluid
[11] = pH 5, Donor D whole vaginal fluid
[12] = pH 8, Donor A whole vaginal fluid
[13] = pH 8, Donor B whole vaginal fluid
[14] = pH 8, Donor C whole vaginal fluid
[15] = pH 8, Donor D whole vaginal fluid

Row | Compound | Color Scores: Trichomonal hydrolases + NVS ([1]; pH 5 acetate) | Color Scores: Trichomonal hydrolases ([1]; pH 5 acetate) | Color Scores: Trichomonal hydrolases + NVS ([1]; pH 8 TRIS) | Color Scores: Trichomonal hydrolases ([1]; pH 8 TRIS) | Color Scores: Whole normal vaginal fluid ([2]; pH 5 acetate) | Color Scores: Whole normal vaginal fluid ([2]; pH 8 TRIS) | Hydrolase activity color score with polypeptide ([3]; pH 5, ZRR-MNA) | Hydrolase activity color score with polypeptide ([3]; pH 8, ZRR-MNA) | Hydrolase activity color score with polypeptide [4, 8] | Hydrolase activity color score with polypeptide [4, 9] | Hydrolase activity color score with polypeptide [4, 10] | Hydrolase activity color score with polypeptide [4, 11] | Hydrolase activity color score with polypeptide [4, 12] | Hydrolase activity color score with polypeptide [4, 13] | Hydrolase activity color score with polypeptide [4, 14] | Hydrolase activity color score with polypeptide [4, 15] | also measured
1 | Cc1cc(=O)oc2cc(NC(=O)[C@H](CCCN=C(N)N)NC(=O)[C@H](CCCN=C(N)N)NC(=O)[C@H](CC(C)C)NC(=O)OC(C)(C)C)ccc12 [BLRR-AMC, BOC-Leu-Arg-Arg-AMC] (Boc-Leu-Arg-Arg-{AMC}) | 0.114 | 0.536 | 0.568 | 0.463 | 0.5 | 6 |  |  |  |  |  |  |  |  |  |  | 
2 | RPKPQFFGLM [Arg-Pro-Lys-Pro-Gln-Phe-Phe-Gly-Leu-Met] |  |  |  |  |  |  | 1 | 0.5 | 0.5 | 1 | 0 | 0.5 | 0.5 | 0.5 | 0 | 0 | 
3 | Cc1cc(=O)oc2cc(NC(=O)[C@H](CCCNC(=N)N)NC(=O)[C@H](CCCCN)NC(=O)[C@H](CCCCN)NC(=O)OCc3ccccc3)ccc12 [ZKKR-AMC, CBZ-Lys-Lys-Arg-AMC] (Cbz-Lys-Lys-Arg-{AMC}) | 0.099 | 0.225 | 0.352 | 0.357 | 0.5 | 2 |  |  |  |  |  |  |  |  |  |  | 
4 | COc1cc(NC(=O)C(CCCCN)NC(=O)C(CC(C)C)NC(=O)C(N)C(C)C)cc2ccccc12 [VLK-MNA, D-Val-Leu-Lys-MNA] |  |  |  |  |  |  |  |  |  |  |  |  |  |  |  |  | Color Score [5]: ++; Color Score [6]: +; Absorbance Readings ([7]; with vaginal fluid supernatant, Acetate pH 5.1): 0.065; Absorbance Readings ([7]; with vaginal fluid supernatant, Borate pH 9.2): 0.062; Absorbance Readings ([7]; with vaginal fluid supernatant, Gly-gly pH 2.8): 0.094; Absorbance Readings ([7]; with vaginal fluid supernatant, HEPES pH 7.5): 0.063; Absorbance Readings ([7]; with vaginal fluid supernatant, MOPS pH 7.0): 0.066; Absorbance Readings ([7]; with vaginal fluid supernatant, TRIS pH 8.0): 0.073; Absorbance Readings ([7]; without vaginal fluid supernatant, Acetate pH 5.1): 1.622; Absorbance Readings ([7]; without vaginal fluid supernatant, Borate pH 9.2): 1.459; Absorbance Readings ([7]; without vaginal fluid supernatant, Gly-gly pH 2.8): 0.691; Absorbance Readings ([7]; without vaginal fluid supernatant, HEPES pH 7.5): 1.217; Absorbance Readings ([7]; without vaginal fluid supernatant, MOPS pH 7.0): 1.087; Absorbance Readings ([7]; without vaginal fluid supernatant, TRIS pH 8.0): 1.219
5 | KPQLWP |  |  |  |  |  |  | 3 | 3 | 0 | 0 | 0 | 0 | 0.5 | 0.5 | 0 | 0 | 
6 | Arg-Lys-Asn-Val-Tyr (RKNVY; printed: Arg-Lys-Asn-Val-Tyr) |  |  |  |  |  |  | 3 | 3 | 0.5 | 0 | 0 | 0 | 0.5 | 0.5 | 1 | 1 | 
7 | Cc1cc(=O)oc2cc(NC(=O)[C@H](CCCN=C(N)N)NC(=O)[C@H](CCCCN)NC(=O)[C@H](CC(C)C)NC(=O)OC(C)(C)C)ccc12 [BLKR-AMC, BOC-Leu-Lys-Arg-AMC] (Boc-Leu-Lys-Arg-{AMC}) | 0.123 | 0.638 | 0.731 | 0.649 | 0.5 | 6 |  |  |  |  |  |  |  |  |  |  | 
8 | KRQHPG |  |  |  |  |  |  | 3 | 3 | 2 | 2 | 0 | 2 | 2.5 | 2 | 0.5 | 2 | 
